In data set [1] the test system is PC-12. The data set can be described thus: Neuroprotective activity against CoCl2-induced cytotoxicity in rat PC12 cells assessed as increase in cell viability at 1 uM pretreated with CoCl2 for 8 hrs followed by incubation with drug and measured after 24 hrs by MTT assay. It counts as functional, cell-based. In general terms: Tetrazolium dyes change colour on reduction, which living cells bring about.

The test system of data set [2] is PC-12. Description: Neuroprotective activity against CoCl2-induced cytotoxicity in rat PC12 cells assessed as increase in cell viability pretreated with CoCl2 for 8 hrs followed by incubation with drug and measured after 24 hrs by MTT assay. It counts as functional, cell-based.
In data set [3] the target is T1, Amine oxidase [flavin-containing] B (Homo sapiens, UniProt P27338).
T1 sequence (P27338 whole entry): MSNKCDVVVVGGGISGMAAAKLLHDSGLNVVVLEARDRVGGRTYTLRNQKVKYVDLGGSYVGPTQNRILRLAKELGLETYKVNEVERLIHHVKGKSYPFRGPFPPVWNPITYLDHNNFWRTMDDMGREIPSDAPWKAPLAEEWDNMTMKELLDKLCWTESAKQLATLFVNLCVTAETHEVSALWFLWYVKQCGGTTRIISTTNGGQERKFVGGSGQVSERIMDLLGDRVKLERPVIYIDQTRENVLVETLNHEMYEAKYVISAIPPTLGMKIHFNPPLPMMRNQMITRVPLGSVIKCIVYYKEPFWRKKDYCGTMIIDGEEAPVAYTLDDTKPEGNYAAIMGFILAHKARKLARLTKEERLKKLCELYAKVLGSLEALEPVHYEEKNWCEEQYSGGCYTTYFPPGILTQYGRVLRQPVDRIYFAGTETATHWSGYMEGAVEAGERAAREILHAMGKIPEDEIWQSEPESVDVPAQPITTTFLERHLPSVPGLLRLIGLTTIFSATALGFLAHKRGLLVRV
Description: Inhibition of human recombinant MAO-B expressed in baculovirus infected BTI cells assessed as inhibition of 4-hydroxyquinoline formation using kynuramine as substrate preincubated with enzyme for 10 mins followed by addition of substrate and measured after 15 mins by fluorescence spectrophotometry.

Data set [4] can be described thus: n-Octanol/saturated water patition coefficient, logP of the compound at 0.05 mg/ml incubated for 24 hrs by HPLC analysis. In kind it is physicochemical.
Data set [5] deals with PC-12. The data set can be described thus: Neuroprotective activity against CoCl2-induced cytotoxicity in rat PC12 cells assessed as increase in cell viability pretreated with CoCl2 for 8 hrs followed by incubation with drug and measured after 24 hrs by MTT assay relative to control. In kind it is functional.
In data set [6] the target is T1, Amine oxidase [flavin-containing] B. Description: Inhibition of human recombinant MAO-B expressed in baculovirus infected BTI cells assessed as inhibition of 4-hydroxyquinoline formation using kynuramine as substrate preincubated with enzyme for 10 mins followed by addition of substrate and measured after 15 mins by fluorescence spectrophotometry relative to control. To be noted: 0.25 h, time 25 min, read-out: Imax.

For data set [7] the target is unchanged. The data set can be described thus: Competitive inhibition of human recombinant MAO-B expressed in baculovirus infected BTI cells assessed as inhibition of 4-hydroxyquinoline formation using varying concentration of kynuramine as substrate preincubated with enzyme for 10 mins followed by addition of substrate and measured after 15 mins by Lineweaver-Burk plot analysis.

Data set [8] relates to Rattus norvegicus. Description: Inhibition of mitochondrial pathway of apoptosis in damaged cerebral hemisphere of middle cerebral artery occlusion-induced ischemia-reperfusion injury Sprague-Dawley rat model assessed as decrease in complement C3 protein expression at 25 mg/kg/day, ip administered for 2 days by western blot analysis. It counts as functional, organism-based. As to conditions: time 2.0 day.

Data set [9] deals with Rattus norvegicus. The data set can be described thus: Ex vivo inhibition of MAO activity in infarcted cerebral hemisphere of middle cerebral artery occlusion-induced ischemia-reperfusion injury Sprague-Dawley rat model assessed as inhibition of 4-hydroxyquinoline formation using kynuramine as substrate at 25 mg/kg/day, ip for 2 days by fluorescence spectrophotometry. It counts as functional, organism-based. As to conditions: time 2.0 day.

The subject of data set [10] is Rattus norvegicus. Description: Inhibition of mitochondrial pathway of apoptosis in damaged cerebral hemisphere of middle cerebral artery occlusion-induced ischemia-reperfusion injury Sprague-Dawley rat model assessed as increase in NeuN protein expression at 25 mg/kg/day, ip administered for 2 days by western blot analysis. In kind it is functional, organism-based. As to conditions: time 2.0 day. On the technique in general: Immunoblotting shows a protein as a band on a membrane.

Data set [11] has as its system Rattus norvegicus. The data set can be described thus: Neuroprotective activity against middle cerebral artery occlusion-induced ischemia-reperfusion injury Sprague-Dawley rat model assessed as decrease in neurological deficit score administered ip for 2 days. In kind it is functional, organism-based. To be noted: dose 12.5-50 mg/kg/day, time 2.0 day.
Data set [12] relates to Rattus norvegicus. Description: Neuroprotective activity against middle cerebral artery occlusion-induced ischemia-reperfusion injury Sprague-Dawley rat model assessed as decrease in cerebral infarct volume at 12.5 to 50 mg/kg/day, ip administered for 2 days by magnetic resonance imaging analysis. It counts as functional, organism-based. As to conditions: dose 12.5-50 mg/kg/day, time 2.0 day.

Data set [13] has as its system Rattus norvegicus. The data set can be described thus: Inhibition of mitochondrial pathway of apoptosis in damaged cerebral hemisphere of middle cerebral artery occlusion-induced ischemia-reperfusion injury Sprague-Dawley rat model assessed as increase in ratio of Bcl-2 to Bax at 25 mg/kg/day, ip administered for 2 days by western blot analysis. It counts as functional, organism-based. To be noted: time 2.0 day.

The source made the active and inactive calls. The rule behind the calls is not given here.

The EC50 is the midpoint of the concentration-response curve. Broadly, the IC50 is the concentration that gives 50% inhibition. A word on the logP: it is the decadic logarithm of the partition coefficient of the neutral form, usually between octanol and water. The Ki is the equilibrium dissociation constant of an inhibitor or competing ligand from its target.

Consider `Cc1ccc(C(=O)Oc2ccc(CCO[C@@H]3O[C@H](CO)[C@@H](O)[C@H](O)[C@H]3O)cc2)cc1`, for which, in data set [1], the result was Active.

As to `CCCCCCC(=O)Oc1ccc(CCO[C@@H]2O[C@H](CO)[C@@H](O)[C@H](O)[C@H]2O)cc1`, the outcome in data set [1] was Active.

For `O=S(=O)(Oc1ccc(CCO[C@@H]2O[C@H](CO)[C@@H](O)[C@H](O)[C@H]2O)cc1)c1ccccc1`, in data set [1], the outcome was inactive.

In the case of `O=C(Oc1ccc(CCO[C@@H]2O[C@H](CO)[C@@H](O)[C@H](O)[C@H]2O)cc1)c1ccc(C(F)(F)F)cc1`, the outcome in [1] was Active.

As to `O=C(OC[C@H]1O[C@@H](OCCc2ccc(O)cc2)[C@H](O)[C@@H](O)[C@@H]1O)c1ccccc1`, in data set [1], the outcome was inactive.

For the compound `C/C=C/C(=O)Oc1ccc(CCO[C@@H]2O[C@H](CO)[C@@H](O)[C@H](O)[C@H]2O)cc1`, in data set [1], the outcome was Active.

As for `O=C(Oc1ccc(CCO[C@@H]2O[C@H](CO)[C@@H](O)[C@H](O)[C@H]2O)cc1)c1c(Cl)cccc1Cl`, in [1], the outcome was inactive.

Regarding `OC[C@H]1O[C@@H](O)[C@H](O)[C@@H](O)[C@@H]1O`, in data set [1], the result was inactive.

Regarding `Cc1ccccc1C(=O)Oc1ccc(CCO[C@@H]2O[C@H](CO)[C@@H](O)[C@H](O)[C@H]2O)cc1`, the result in data set [1] was Active.

In the case of `CC(=O)OC[C@H]1O[C@@H](OCCc2ccc(O)cc2)[C@H](O)[C@@H](OC(C)=O)[C@@H]1O`, the outcome in data set [1] was inactive.

For `CC(=O)Oc1ccc(CCO[C@@H]2O[C@H](CO)[C@@H](O)[C@H](O)[C@H]2O)cc1`, the result in [1] was Active.

For the compound `O=C(Oc1ccc(CCO[C@@H]2O[C@H](CO)[C@@H](O)[C@H](O)[C@H]2O)cc1)c1ccc(Cl)c(Cl)c1`, in data set [1], the outcome was inactive.

As for `OC[C@H]1O[C@@H](OCCc2ccc(O)cc2)[C@H](O)[C@@H](O)[C@@H]1O` [SALIDROSIDE], the EC50 in [2] stood at 300 nM. The IC50 in data set [3] came out at 810 nM. Moreover, the result in data set [1] was Active. The compound further returned a logP in data set [4] (octanol/water, 24 h) of -0.89. The Emax is 27% in data set [5] and 52% in data set [6]. Moreover, the Ki in data set [7] amounted to 920 nM.

Turning to `O=C(/C=C/c1ccccc1)Oc1ccc(CCO[C@@H]2O[C@H](CO)[C@@H](O)[C@H](O)[C@H]2O)cc1`, in data set [1], the result was Active.

With `Cc1cccc(C(=O)Oc2ccc(CCO[C@@H]3O[C@H](CO)[C@@H](O)[C@H](O)[C@H]3O)cc2)c1`, in [1], the outcome was Active.

With `O=C(Oc1ccc(CCO[C@@H]2O[C@H](CO)[C@@H](O)[C@H](O)[C@H]2O)cc1)c1cccc(CCl)c1`, in [1], the result was inactive.

In the case of `O=C(Oc1ccc(CCO[C@@H]2O[C@H](CO)[C@@H](O)[C@H](O)[C@H]2O)cc1)c1cccc(Cl)c1Cl`, the result in data set [1] was inactive.

For the compound `CC(=O)OC[C@H]1O[C@@H](OCCc2ccc(O)cc2)[C@H](O)[C@@H](O)[C@@H]1O`, the result in data set [1] was inactive.

For `C=CC(=O)Oc1ccc(CCO[C@@H]2O[C@H](CO)[C@@H](O)[C@H](O)[C@H]2O)cc1`, the outcome in [1] was Active.

For the compound `O=C(Oc1ccc(CCO[C@@H]2O[C@H](CO)[C@@H](O)[C@H](O)[C@H]2O)cc1)c1ccc(CCl)cc1`, the outcome in data set [1] was inactive.

For `OC[C@H]1O[C@H](OCCc2ccc(O)cc2)[C@H](O)[C@@H](O)[C@@H]1O`, the result in data set [1] was inactive.

Take `COc1ccc(C(=O)Oc2ccc(CCO[C@@H]3O[C@H](CO)[C@@H](O)[C@H](O)[C@H]3O)cc2)cc1`: the result in [1] was Active.

`O=C(Oc1ccc(CCO[C@@H]2O[C@H](CO)[C@@H](O)[C@H](O)[C@H]2O)cc1)c1ccc2ccccc2c1`: the result in [1] was inactive.

Turning to `OCCc1ccc(O)cc1`, in data set [1], the outcome was inactive.

For the compound `O=C(Oc1ccc(CCO[C@@H]2O[C@H](CO)[C@@H](O)[C@H](O)[C@H]2O)cc1)c1cccc(Cl)c1`, in [1], the outcome was inactive.

With `O=C(Oc1ccc(CCO[C@@H]2O[C@H](CO)[C@@H](O)[C@H](O)[C@H]2O)cc1)C1CCCCC1`, the outcome in [1] was Active.

Regarding `O=C(Oc1ccc(CCO[C@@H]2O[C@H](CO)[C@@H](O)[C@H](O)[C@H]2O)cc1)c1ccccc1`, the EC50 in [2] amounted to 38 nM. Moreover, the inhibition result in data set [8], in data set [9], in data set [10] and in data set [13] was “Active” each time. In addition, the IC50 in data set [3] came to 80 nM. For the same compound, the outcome in data set [1] and in data set [12] was Active. Moreover, in data set [4] (n-octanol/saturated water), the logP at 24 h is 1.44. Besides, the Emax came to 42% in data set [5] and 73.6% in data set [6]. In addition, the Activity result in data set [11] is “Dose-dependent effect”. In [7], the Ki turned out to be 41 nM.

For `CCc1ccc(C(=O)Oc2ccc(CCO[C@@H]3O[C@H](CO)[C@@H](O)[C@H](O)[C@H]3O)cc2)cc1`, in data set [1], the outcome was Active.

Take `O=C(Oc1ccc(CCO[C@@H]2O[C@H](CO)[C@@H](O)[C@H](O)[C@H]2O)cc1)c1cccc(F)c1`: the outcome in data set [1] was Active.

In the case of `CCCc1ccc(C(=O)Oc2ccc(CCO[C@@H]3O[C@H](CO)[C@@H](O)[C@H](O)[C@H]3O)cc2)cc1`, the outcome in data set [1] was Active.

The values are drawn from ChEMBL document CHEMBL4706619, “Synthesis and identification of a novel derivative of salidroside as a selective, competitive inhibitor of monoamine oxidase B with enhanced neuroprotective properties” (Eur J Med Chem, 2021).
